Biological target: SOS1-KRas (G12C) (Homo sapiens (Human), UniProt Q07889)
Test: SOS1-KRas (G12C) FRET Assay
Format: binding
Conditions: inhibition of SOS1:KRAS interaction; 0.5 nM His10-SOS1 (res. 564-1049), 2.5 nM GST-KRAS (res. 1-169, G12C); 2 hrs at RT
Description: The final assay was performed at 20 uL with 0.5 nM SOS1 protein and 2.5 nM KRAS protein in a buffer of PBS, 0.1% BSA, 5 mM MgCl2, 0.0025% Igepal, 100 mM KF, 5 mM DTT in a white 384 square well OptiPlate (PerkinElmer, Cat. 6007290). A 2×KRAS working solution was prepared in an assay buffer containing 5 nM GST-KRAS G12C and 2 nM anti-GST-Eu (K) (Cisbio, Cat. 61GSTKLA) and pre-incubated for 15 minutes at 25° C. […] The final DMSO concentration is 0.5%. Plates were incubated at RT for 2 hrs before the FRET signal was measured using Envision at emission 665 nm and 615 nm. FRET signal was converted to percentage of protein-protein interaction using the following equation:
[formula] • C: signal with compound treatment • P: signal for positive control (DMSO) • N: signal for negative control (no SOS1 added) • IC50 and Hill coefficients were obtained using Graph Pad Prism (Graph Pad software, Inc, USA) with non-linear regression analysis.

Sequence of SOS1-KRas (G12C) (Q07889 564-1049, stated change not applied): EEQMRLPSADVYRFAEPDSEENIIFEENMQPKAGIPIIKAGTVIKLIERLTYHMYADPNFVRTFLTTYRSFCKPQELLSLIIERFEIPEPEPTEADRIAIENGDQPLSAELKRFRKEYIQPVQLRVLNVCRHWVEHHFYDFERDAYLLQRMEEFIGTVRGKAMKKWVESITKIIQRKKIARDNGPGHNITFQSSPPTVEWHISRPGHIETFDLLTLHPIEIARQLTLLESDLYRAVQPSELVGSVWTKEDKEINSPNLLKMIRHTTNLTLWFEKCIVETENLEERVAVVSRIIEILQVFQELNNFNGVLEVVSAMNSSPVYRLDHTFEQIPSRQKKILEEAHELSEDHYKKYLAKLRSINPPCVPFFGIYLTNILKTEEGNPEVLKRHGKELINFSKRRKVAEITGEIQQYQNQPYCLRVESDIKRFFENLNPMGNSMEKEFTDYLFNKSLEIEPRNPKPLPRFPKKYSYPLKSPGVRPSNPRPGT

Row | Structure (SMILES) | IC50
1 | C[C@@H](NC(=O)c1cc(-c2ccncn2)c(F)cc1NC1CCN(C)CC1)c1cccc(C(F)F)c1F [Example 66, (R)—N-(1-(3-(difluoromethyl)-2-fluorophenyl)ethyl)-4-fluoro-2-((1-methylpiperidin-4-yl)amino)-5-(pyrimidin-4-yl)benzamide] | 34.9 nM
2 | C[C@@H](NC(=O)c1cc(C2CC2)c(F)cc1NC1CCN(C)CC1)c1cccc(C(F)F)c1F [Example 67, (R)-5-cyclopropyl-N-(1-(3-(difluoromethyl)-2-fluorophenyl)ethyl)-4-fluoro-2-((1-methylpiperidin-4-yl)amino)benzamide] | 216 nM
3 | C[C@@H](NC(=O)c1cc(C23CC(C2)C3)c(F)cc1NC1CCN(C)CC1)c1cccc(C(F)F)c1F [Example 68, (R)-5-(bicyclo[1.1.1]pentan-1-yl)-N-(1-(3-(difluoromethyl)-2-fluorophenyl)ethyl)-4-fluoro-2-((1-methylpiperidin-4-yl)amino)benzamide] | 138 nM
4 | C[C@@H](NC(=O)c1cc(C23CC(C2)C3)c(F)cc1N[C@H]1CN2CCC1CC2)c1cccc(C(F)F)c1F [Example 69, 5-(bicyclo[1.1.1]pentan-1-yl)-N—((R)-1-(3-(difluoromethyl)-2-fluorophenyl)ethyl)-4-fluoro-2-(((R)-quinuclidin-3-yl)amino)benzamide] | 120 nM
5 | C[C@@H](NC(=O)c1cc(C23CC(C2)C3)c(F)cc1N[C@@H]1CN2CCC1CC2)c1cccc(C(F)F)c1F [Example 70, 5-(bicyclo[1.1.1]pentan-1-yl)-N—((R)-1-(3-(difluoromethyl)-2-fluorophenyl)ethyl)-4-fluoro-2-(((S)-quinuclidin-3-yl)amino)benzamide] | 347 nM
6 | COC(=O)c1cc(C(=O)N[C@H](C)c2cccc(C(F)F)c2F)c(NC2CCN(C)CC2)cc1F [Example 71, methyl (R)-5-((1-(3-(difluoromethyl)-2-fluorophenyl)ethyl)carbamoyl)-2-fluoro-4-((1-methylpiperidin-4-yl)amino)benzoate] | 93.6 nM
7 | C[C@@H](NC(=O)c1cc(-c2nnco2)c(F)cc1NC1CCN(C)CC1)c1cccc(C(F)F)c1F [Example 72, (R)—N-(1-(3-(difluoromethyl)-2-fluorophenyl)ethyl)-4-fluoro-2-((1-methylpiperidin-4-yl)amino)-5-(1,3,4-oxadiazol-2-yl)benzamide] | 11.4 nM
8 | CNC(=O)c1cc(C(=O)N[C@H](C)c2cccc(C(F)F)c2F)c(NC2CCN(C)CC2)cc1F [Example 73, (R)—N1-(1-(3-(difluoromethyl)-2-fluorophenyl)ethyl)-4-fluoro-N3-methyl-6-((1-methylpiperidin-4-yl)amino)isophthalamide] | 148 nM
9 | C[C@@H](NC(=O)c1cc(C(=O)N2CCC(F)(F)CC2)c(F)cc1NC1CCN(C)CC1)c1cccc(C(F)F)c1F [Example 74, (R)—N-(1-(3-(difluoromethyl)-2-fluorophenyl)ethyl)-5-(4,4-difluoropiperidine-1-carbonyl)-4-fluoro-2-((1-methylpiperidin-4-yl)amino)benzamide] | 888 nM
10 | C[C@@H](NC(=O)c1cc(C(=O)N(C)C)c(F)cc1NC1CCN(C)CC1)c1cccc(C(F)F)c1F [Example 75, (R)—N1-(1-(3-(difluoromethyl)-2-fluorophenyl)ethyl)-4-fluoro-N3,N3-dimethyl-6-((1-methylpiperidin-4-yl)amino)isophthalamide] | 244 nM
11 | CC(C)NC(=O)c1cc(C(=O)N[C@H](C)c2cccc(C(F)F)c2F)c(NC2CCN(C)CC2)cc1F [Example 76, (R)—N1-(1-(3-(difluoromethyl)-2-fluorophenyl)ethyl)-4-fluoro-N3-isopropyl-6-((1-methylpiperidin-4-yl)amino)isophthalamide] | 874 nM
12 | C[C@@H](NC(=O)c1cc(C(=O)N2CCOCC2)c(F)cc1NC1CCN(C)CC1)c1cccc(C(F)F)c1F [Example 77, (R)—N-(1-(3-(difluoromethyl)-2-fluorophenyl)ethyl)-4-fluoro-2-((1-methylpiperidin-4-yl)amino)-5-(morpholine-4-carbonyl)benzamide] | 240 nM
13 | COC(=O)c1ccc(NC2CCN(C)CC2)c(C(=O)N[C@H](C)c2cccc(C(F)F)c2F)c1 [Example 78, methyl (R)-3-((1-(3-(difluoromethyl)-2-fluorophenyl)ethyl)carbamoyl)-4-((1-methylpiperidin-4-yl)amino)benzoate] | 230 nM
14 | C[C@@H](NC(=O)c1cc(N2CCOCC2)c(C(F)F)cc1NC1CCN(C)CC1)c1cccc(C(F)F)c1F [Example 79, (R)-4-(difluoromethyl)-N-(1-(3-(difluoromethyl)-2-fluorophenyl)ethyl)-2-((1-methylpiperidin-4-yl)amino)-5-morpholinobenzamide] | 39.1 nM
15 | C[C@@H](NC(=O)c1cc(N2CCOCC2)c(Cl)cc1N[C@H]1CN2CCC1CC2)c1cccc(C(F)F)c1F [Example 80, 4-chloro-N—((R)-1-(3-(difluoromethyl)-2-fluorophenyl)ethyl)-5-morpholino-2-(((R)-quinuclidin-3-yl)amino)benzamide] | 44.3 nM
16 | C[C@@H](NC(=O)c1cc(N2CCOCC2)c(Cl)cc1N[C@@H]1CN2CCC1CC2)c1cccc(C(F)F)c1F [Example 81, 4-chloro-N—((R)-1-(3-(difluoromethyl)-2-fluorophenyl)ethyl)-5-morpholino-2-(((S)-quinuclidin-3-yl)amino)benzamide] | 12.6 nM
